Results from US20070128217A1 (priority 2003, published 2007).

How the values were obtained:
[1] = tested on: recombinant human anti-SARS-CoV antibody 03-018; format: binding; parameters: Binding of antibody 03-018 to linear peptides of the N protein of SARS-CoV Urbani / Binding of antibody 03-018 to looped/cyclic peptides of the N protein of SARS-CoV Urbani: unit not given here
[2] = tested on: control sera (pooled serum of ten healthy LUMC hospital workers; commercial negative donor pooled serum from the Dutch bloodbank); format: binding, human; parameters: Binding of Control serum LUMC to linear peptides / Binding of Control serum Blood-bank to linear peptides / Binding of Control serum LUMC to looped peptides / Binding of Control Serum Blood-Bank to Looped peptides / Binding of Control serum LUMC to linear peptides of the protein M of SARS-CoV Urbani / Binding of Control serum Blood-bank to linear peptides of the protein M of SARS-CoV Urbani / Binding of Control serum LUMC to looped peptides of the protein M of SARS-CoV Urbani / Binding of Control Serum Blood-Bank to Looped peptides of the protein M of SARS-CoV Urbani: unit not given here
[3] = tested on: antibodies in sera from SARS patients (sera 1a, 1b, 2, 6, 37, 62, London, SARS-yellow, SARS-green); format: binding, human; parameters: Binding of serum 6 to linear peptides of protein X1 of SARS-CoV Urbani / Binding of serum 37 to linear peptides of protein X1 of SARS-CoV Urbani / Binding of serum 6 to looped/cyclic peptide (PEPSCAN-ELISA) / Binding of serum 37 to looped/cyclic peptide (PEPSCAN-ELISA) / Binding of serum 37 to looped/cyclic peptides of protein X1 of SARS-CoV Urbani / Binding of serum 6 to linear peptides of protein X2 / Binding of serum 37 to linear peptides of protein X2 / Binding of serum 37 to looped/cyclic peptides of protein X2 of SARS-CoV Urbani / Binding of serum 6 to linear peptides of protein M of SARS-CoV Urbani / Binding of serum 37 to linear peptides of protein M of SARS-CoV Urbani / Binding of serum 6 to looped/cyclic peptides of protein M of SARS-CoV Urbani / Binding of serum 37 to looped/cyclic peptides of protein M of SARS-CoV Urbani / Binding of serum 6 to linear peptides of protein X3 of SARS-CoV Urbani / Binding of serum 37 to linear peptides of protein X3 of SARS-CoV Urbani / Binding of serum 37 to looped/cyclic peptides of protein X3 of SARS-CoV Urbani / Binding of serum 6 to linear peptides of protein X4 of SARS-CoV Urbani / Binding of serum 37 to linear peptides of protein X4 of SARS-CoV Urbani / Binding of serum 37 to looped/cyclic peptides of protein X4 of SARS-CoV Urbani / Binding of serum 6 to linear peptides of protein X5 of SARS-CoV Urbani / Binding of serum 37 to linear peptides of protein X5 of SARS-CoV Urbani / Binding of serum 37 to looped/cyclic peptides of protein X5 of SARS-CoV Urbani / Binding of serum 6 to linear peptides of protein N of SARS-CoV Urbani / Binding of serum 37 to linear peptides of protein N of SARS-CoV Urbani / Binding of serum 6 to linear peptide (PEPSCAN-ELISA) / Binding of serum 1a to looped/cyclic peptides of protein N of SARS-CoV Urbani / Binding of serum 1b to looped/cyclic peptides of protein N of SARS-CoV Urbani / Binding of serum 2 to looped/cyclic peptides of protein N of SARS-CoV Urbani / Binding of serum 6 to looped/cyclic peptides of protein N of SARS-CoV Urbani / Binding of serum 37 to looped/cyclic peptides of protein N of SARS-CoV Urbani / Binding of serum 62 to looped/cyclic peptides of protein N of SARS-CoV Urbani / Binding of serum London to looped/cyclic peptides of protein N of SARS-CoV Urbani / Binding of serum SARS-green to looped/cyclic peptides of protein N of SARS-CoV Urbani: unit not given here
[4] = tested on: rabbit serum obtained by immunizing a rabbit with the SARS-CoV strain Frankfurt 1; format: binding; parameters: Binding of a rabbit serum to linear peptides / Binding of a rabbit serum to looped peptides / Rabbit serum linear peptides / Rabbit serum looped peptides / Binding of a rabbit serum to linear peptides of protein N of SARS-CoV Urbani (Rabbit serum linear peptides) / Binding of a rabbit serum to looped/cyclic peptides of protein N of SARS-CoV Urbani (Rabbit serum looped peptides): unit not given here

| Sequence | Binding of Control Serum Blood-Bank to Looped peptides [2] | Binding of Control serum Blood-bank to linear peptides [2] | Binding of Control serum LUMC to linear peptides [2] | Binding of Control serum LUMC to looped peptides [2] | Binding of serum 1a to linear peptides of protein N of SARS-CoV Urbani [3] | Binding of serum 1a to looped/cyclic peptides of protein N of SARS-CoV Urbani [3] | Binding of serum 1b to linear peptides of protein N of SARS-CoV Urbani [3] | Binding of serum 1b to looped/cyclic peptides of protein N of SARS-CoV Urbani [3] | Binding of serum 2 to linear peptides of protein N of SARS-CoV Urbani [3] | Binding of serum 2 to looped/cyclic peptides of protein N of SARS-CoV Urbani [3] | Binding of serum 6 to linear peptides of protein N of SARS-CoV Urbani [3] | Binding of serum 6 to looped/cyclic peptides of protein N of SARS-CoV Urbani [3] | Binding of serum 37 to linear peptides of protein N of SARS-CoV Urbani [3] | Binding of serum 37 to looped/cyclic peptides of protein N of SARS-CoV Urbani [3] | Binding of serum 62 to linear peptides of protein N of SARS-CoV Urbani [3] | Binding of serum 62 to looped/cyclic peptides of protein N of SARS-CoV Urbani [3] | Binding of serum London to linear peptides of protein N of SARS-CoV Urbani [3] | Binding of serum London to looped/cyclic peptides of protein N of SARS-CoV Urbani [3] | Binding of serum SARS-green to linear peptides of protein N of SARS-CoV Urbani [3] | Binding of serum SARS-green to looped/cyclic peptides of protein N of SARS-CoV Urbani [3] | further results |
| --- | --- | --- | --- | --- | --- | --- | --- | --- | --- | --- | --- | --- | --- | --- | --- | --- | --- | --- | --- | --- | --- |
| GVPINTNSGPDDQIG | 0.4 | 0.7 | 0.7 | 0.4 | 0.3 | 0.3 | 0.1 | 0.2 | 0.2 | 0.2 | 0.2 | 0.1 | 0.8 | 0.5 | 0.6 | 0.3 | 0.5 | 0.3 | 0.5 | 0.3 | Binding of antibody 03-018 to linear peptides of the N protein of SARS-CoV Urbani [1]: 0.1; Binding of antibody 03-018 to looped/cyclic peptides of the N protein of SARS-CoV Urbani [1]: 0.2; Binding of serum SARS-yellow to linear peptides of protein N of SARS-CoV Urbani [3]: 0.5; Binding of serum SARS-yellow to looped/cyclic peptides of protein N of SARS-CoV Urbani [3]: 0.2; Binding of a rabbit serum to linear peptides of protein N of SARS-CoV Urbani (Rabbit serum linear peptides) [4]: 0.1; Binding of a rabbit serum to looped/cyclic peptides of protein N of SARS-CoV Urbani (Rabbit serum looped peptides) [4]: 0.2 |
| GYYRRATRRVRGGDG | 0.6 | 0.6 | 0.6 | 0.5 | 0.3 | 0.3 | 0.1 | 0.1 | 0.1 | 0.4 | 0.2 | 0.2 | 0.3 | 0.5 | 0.4 | 0.4 | 0.4 | 0.3 | 0.2 | 0.2 | Binding of antibody 03-018 to linear peptides of the N protein of SARS-CoV Urbani [1]: 0.1; Binding of antibody 03-018 to looped/cyclic peptides of the N protein of SARS-CoV Urbani [1]: 0.2; Binding of serum SARS-yellow to linear peptides of protein N of SARS-CoV Urbani [3]: 0.6; Binding of serum SARS-yellow to looped/cyclic peptides of protein N of SARS-CoV Urbani [3]: 0.2; Recognition of the peptide by the rabbit serum [4]: recognized |
| HIGTRNPNNNAATVL | 1.2 | 0.9 | 0.9 | 1.2 | 0.3 | 0.6 | 0.2 | 0.5 | 0.4 | 0.9 | 0.2 | 0.6 | 0.9 | 1.2 | 0.8 | 1.3 | 0.5 | 0.7 | 0.5 | 0.9 | Binding of antibody 03-018 to linear peptides of the N protein of SARS-CoV Urbani [1]: 0.1; Binding of antibody 03-018 to looped/cyclic peptides of the N protein of SARS-CoV Urbani [1]: 0.3; Binding of serum SARS-yellow to linear peptides of protein N of SARS-CoV Urbani [3]: 0.7; Binding of serum SARS-yellow to looped/cyclic peptides of protein N of SARS-CoV Urbani [3]: 0.8; Binding of a rabbit serum to linear peptides of protein N of SARS-CoV Urbani (Rabbit serum linear peptides) [4]: 0.1; Binding of a rabbit serum to looped/cyclic peptides of protein N of SARS-CoV Urbani (Rabbit serum looped peptides) [4]: 0.7 |
| ITFGGPTDSTDNNQN | 0.7 | 0.5 | 0.6 | 0.7 | 0.2 | 0.3 | 0.1 | 0.2 | 0.1 | 0.3 | 0.1 | 0.2 | 0.7 | 0.6 | 0.6 | 0.5 | 0.5 | 0.4 | 0.3 | 0.7 | Recognition of the peptide by antibody 03-018 [1]: recognized; Binding of serum SARS-yellow to linear peptides of protein N of SARS-CoV Urbani [3]: 0.4; Binding of serum SARS-yellow to looped/cyclic peptides of protein N of SARS-CoV Urbani [3]: 0.3; Binding of a rabbit serum to linear peptides of protein N of SARS-CoV Urbani (Rabbit serum linear peptides) [4]: 0.1; Binding of a rabbit serum to looped/cyclic peptides of protein N of SARS-CoV Urbani (Rabbit serum looped peptides) [4]: 0.3 |
